# Test results taken from patent US5627271A, “Glycolipids, their preparation and use” (Genzyme Limited, priority 1992, dated 1997).
# Values joined by “and” are separate entries in the source; they are usually repeats but may differ in a detail not shown here. Equal entries are not always repeated.
# What was measured:
# α2-3 sialyltransferase = biological target: T1, α2-3 sialyltransferase (Sus scrofa, UniProt Q02745); assay: Incorporation of radio-labelled CMP-NANA into glycolipid acceptors by α2-3 sialyltransferase; type: biochemical, porcine
# T1 construct: from porcine liver; from tissue; host or cells: porcine liver
# T1 sequence (Q02745 1-343): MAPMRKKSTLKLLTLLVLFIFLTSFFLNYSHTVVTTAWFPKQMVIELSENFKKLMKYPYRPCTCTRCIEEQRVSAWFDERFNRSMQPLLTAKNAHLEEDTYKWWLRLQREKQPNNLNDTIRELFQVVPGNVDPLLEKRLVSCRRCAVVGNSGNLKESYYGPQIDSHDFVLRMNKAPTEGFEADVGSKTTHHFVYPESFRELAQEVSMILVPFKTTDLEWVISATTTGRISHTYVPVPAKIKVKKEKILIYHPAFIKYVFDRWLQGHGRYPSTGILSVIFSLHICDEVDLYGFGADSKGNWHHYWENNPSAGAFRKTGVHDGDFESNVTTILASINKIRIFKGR
# Procedure: (§1) Various glycolipids have been incubated with α2-3 and α2-6 sialyltransferases (from porcine and rat liver) in the presence of radio-labelled CMP-NANA. […] Other glycolipids could accept NANA, but in relatively low yields.
# However, this transferase should be able to use glycolipid (54) as an acceptor.
# α2-6 sialyltransferase = biological target: T2, α2-6 sialyltransferase (Rattus norvegicus, UniProt P13721); assay: Incorporation of radio-labelled CMP-NANA into glycolipid acceptors by α2-6 sialyltransferase; type: biochemical
# T2 construct: (from porcine and rat liver); from tissue; host or cells: rat liver
# T2 sequence (P13721 1-403): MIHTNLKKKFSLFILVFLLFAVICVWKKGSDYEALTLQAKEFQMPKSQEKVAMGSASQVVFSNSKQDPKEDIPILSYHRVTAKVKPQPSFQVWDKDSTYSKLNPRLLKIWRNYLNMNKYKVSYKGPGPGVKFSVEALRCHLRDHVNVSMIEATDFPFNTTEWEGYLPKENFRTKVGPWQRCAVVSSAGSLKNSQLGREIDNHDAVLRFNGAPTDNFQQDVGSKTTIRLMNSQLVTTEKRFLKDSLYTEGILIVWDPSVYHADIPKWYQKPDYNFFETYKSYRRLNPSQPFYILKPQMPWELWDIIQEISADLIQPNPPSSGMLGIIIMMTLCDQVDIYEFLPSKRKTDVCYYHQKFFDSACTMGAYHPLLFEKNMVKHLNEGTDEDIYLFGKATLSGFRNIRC
# Procedure: as §1
# galactosyltransferase = assay: Test as substrate for galactosyltransferase; type: biochemical, bovine; conditions: with and without the detergent Triton CF-54
# Procedure: Compound (28): The acceptor (27) (16.5 mg, 31.2 μmol) was sonicated carefully for 15 min in 39 μl of 40 mM MnCl2, 93 μl of 50 mM NaN3, 102 μl and 330 μl of sodium cacodylate buffer pH 7.4 100 mM and 50 mM respectively. Then 35 μl of 2% BSA, 5.5 μl (5.5 U) of 1 U/μl calf intestinal alkaline phosphatase, 143 μl (1.92 U) of 6.7 U/500 μl UDP-Glc 4--epimerase, 29 μl (487 mU) of 8.4 U/500 μl galactosyl-transferase and 21.9 mg (37.9 μmol, 1.2 eq.) of UDP-Glc were added. The final concentrations were as follows: [Acceptor]=40 mM, [UDP-Glc]=49 mM, [MnCl2 ]=2 mM, [NAN3 ]=6 mM, [Sodium cacodylate]=50 mM.
# The GlcNAc ceramide (40) has been tested as a substrate for the galactosyltransferase with and without the addition of the detergent Triton CF-54. No conversion was obtained.
# [1] = biological target: T3, α1-3 fucosyl transferase VI (Homo sapiens, UniProt P51993); assay: Test as substrate for α1-3 fucosyl transferase VI with radio-labelled GDP-[14C]fucose; type: biochemical; conditions: for Competition for incorporation of fucose into lipid (acceptor quality): 0.2 mM (28) with 0 to 2 mM N-acetyllactosamine; for Percentage of fucose transferred: 0.5 mU fucosyl transferase, 1 hour
# T3 sequence (P51993 1-359): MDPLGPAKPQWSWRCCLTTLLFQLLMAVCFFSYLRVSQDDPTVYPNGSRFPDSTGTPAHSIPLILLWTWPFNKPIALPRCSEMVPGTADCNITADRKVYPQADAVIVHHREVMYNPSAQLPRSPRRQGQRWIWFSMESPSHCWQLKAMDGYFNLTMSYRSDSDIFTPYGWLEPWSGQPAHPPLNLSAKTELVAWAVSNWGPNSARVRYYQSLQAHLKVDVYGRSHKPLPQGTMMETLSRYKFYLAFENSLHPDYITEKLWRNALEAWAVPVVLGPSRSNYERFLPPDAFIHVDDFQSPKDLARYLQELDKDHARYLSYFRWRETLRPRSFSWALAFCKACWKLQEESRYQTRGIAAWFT
# Procedure: The acceptor (28) was tested as a substrate for α1-3 fucosyl transferase VI, by incubation with the enzyme and radio-labelled GDP-[^14 C]fucose. The reaction conditions were: 45 mM Mes pH 6.5; 27 μM GDP-Fuc; 0.1% BSA; 0.1 mM NaCl; 5 mM MnCl2; 5 mM MgCl2; incubation at 37° C.). The reaction mixture was passed through a Sep-Pak C18 cartridge which was washed with 0.2M NaCl to ensure separation of all hydrophilic material. The lipid fraction was then eluted with MeOH. The incorporation of radioactivity into lipids was measured by scintillation counting.
# In a first experiment, the transfer was monitored with time, using 0.2 mM (28) and 0.1 mU fucosyltransferase/100 μl incubation, and compared to a control incubation containing no acceptor. […] In a further experiment, but using 0.5 mU fucosyl transferase over 1 hour, the transfer of fucose was measured at 0.2, 1, 5 and 24 mM concentrations of (28). The percentage of fucose transferred was respectively about 50%, 60%, 65% and 70%.
# Competition experiments were also carried out, using 0.2 mM acceptor (28), in the presence of various concentrations (0 to 2 mM) of N-acetyllactosamine which is a known substrate for the enzyme. The samples were analysed as before, for incorporation of fucose into lipid.
# [2] = acceptor conc. 12 mM, bracketed numbers are background
smiles,measurement,setting,value
CCCCCCCCCCCCC/C=C/[C@@H](O)[C@@H](N)CO[C@@H]1O[C@H](CO)[C@@H](O[C@@H]2O[C@H](CO)[C@H](O)[C@H](O)[C@H]2O)[C@H](O)[C@H]1O [(1)],α2-3ST yield (%) of incorporation of radio-labelled CMP-NANA,α2-3 sialyltransferase; acceptor conc. 12 mM,1.5%
same,α2-3ST yield (%) of incorporation of radio-labelled CMP-NANA,α2-3 sialyltransferase; acceptor conc. 100 mM,2.4% and 2.5%
CCCCCCCCCCCCC/C=C/[C@@H](O)[C@H](CO[C@@H]1O[C@H](CO)[C@@H](O[C@@H]2O[C@H](CO)[C@H](O)[C@H](O)[C@H]2O)[C@H](O)[C@H]1O)N=[N+]=[N-] [(20)],α2-3ST yield (%) of incorporation of radio-labelled CMP-NANA,α2-3 sialyltransferase; acceptor conc. 100 mM,2.5%
same,α2-6 ST yield (%) of incorporation of radio-labelled CMP-NANA,α2-6 sialyltransferase; [2],2.9% and 2.8%
CCCCCCCCCCCCC/C=C/[C@@H](O)[C@H](CO[C@@H]1O[C@H](CO)[C@@H](O)[C@H](O)[C@H]1NC(C)=O)N=[N+]=[N-] [(27)],Conversion (galactosylation) by galactosyltransferase,galactosyltransferase,galactosylated
CCCCCCCCCCCCC/C=C/[C@@H](O)[C@H](CO[C@@H]1O[C@H](CO)[C@@H](O[C@@H]2O[C@H](CO)[C@H](O)[C@H](O)[C@H]2O)[C@H](O)[C@H]1NC(C)=O)N=[N+]=[N-] [(28)],α2-3ST yield (%) of incorporation of radio-labelled CMP-NANA,α2-3 sialyltransferase; acceptor conc. 6 mM,1.1%
same,α2-3ST yield (%) of incorporation of radio-labelled CMP-NANA,α2-3 sialyltransferase; acceptor conc. 100 mM,1.5% and 1.2%
same,α2-6 ST yield (%) of incorporation of radio-labelled CMP-NANA,"α2-6 sialyltransferase; acceptor conc. 6 mM, bracketed numbers are background",22.2%
same,α2-6 ST yield (%) of incorporation of radio-labelled CMP-NANA,α2-6 sialyltransferase; [2],23.2%
same,α2-6 ST yield (%) of incorporation of radio-labelled CMP-NANA,"α2-6 sialyltransferase; acceptor conc. 50 mM, bracketed numbers are background",47.0%
same,α2-6 ST yield (%) of incorporation of radio-labelled CMP-NANA,"α2-6 sialyltransferase; acceptor conc. 100 mM, bracketed numbers are background",59.8%
same,Competition for incorporation of fucose into lipid (acceptor quality),[1],similarly good acceptors
same,Incorporation of label into lipid monitored with time,"[1]; 0.2 mM acceptor, 0.1 mU fucosyltransferase/100 μl, vs control without acceptor",incorporation of label into lipid above background
same,Percentage of fucose transferred,[1]; 0.2 mM acceptor,about 50%
same,Percentage of fucose transferred,[1]; 1 mM acceptor,~60%
same,Percentage of fucose transferred,[1]; 5 mM acceptor,~65%
same,Percentage of fucose transferred,[1]; 24 mM acceptor,~70%
"CCCCCCCCCCCCC/C=C/[C@@H](O)[C@H](CO[C@@H]1O[C@H](CO)[C@@H](O)[C@H](O)[C@H]1NC(C)=O)NC(=O)CCCCCCCCCCCCCCCCCCCCCCC [(40), GlcNAc ceramide]",Conversion (galactosylation) by galactosyltransferase,galactosyltransferase,No conversion
"CC(=O)N[C@H]1C(O)O[C@H](CO)[C@@H](O[C@@H]2O[C@H](CO)[C@H](O)[C@H](O)[C@H]2O)[C@@H]1O (stereo partly drawn) [N-acetyllactosamine, reference compound]",Competition for incorporation of fucose into lipid (acceptor quality),[1],similarly good acceptors
"CCCCCCCCCCCCC/C=C/[C@@H](O)[C@H](CO[C@@H]1O[C@H](CO)[C@@H](O[C@@H]2O[C@H](CO)[C@H](O)[C@H](O)[C@H]2O)[C@H](O)[C@H]1O)NC(=O)CCCCCCCCCCCCCCCCC [lactosyl-ceramide, Lactosylceramide, reference compound]",Transfer by α2-3 sialyltransferase / acceptor substrate (in words),α2-3 sialyltransferase; α2-3 sialyltransferase from porcine liver,not an acceptor substrate
same,α2-6 ST yield (%) of incorporation of radio-labelled CMP-NANA,α2-6 sialyltransferase; acceptor conc. 43 mM,2.7%
